Test [1] concerns the target T1, microtubular protein (tubulin) from porcine brains (Sus scrofa, UniProt P02550+P02554).
T1 construct: Microtubular protein was purified by the method of Shelanski et al; from tissue; host or cells: porcine brain
Description: Inhibition of tubulin polymerization in vitro (turbidimetry at 340 nm). It counts as biochemical. The note with it: microtubular protein 1 mg/ml, 0.25 mM GTP, 37° C. How it is done:
The inventive compounds were tested in various models. The inventive compounds of general formula I are remarkable in that they inhibit tubulin polymerization more than does 2-methoxyestradiol. The effect on tubulin polymerization was tested in vitro in the following way:
Microtubular protein was purified by the method of Shelanski et al. (Shelanski et al., Proc. Natl. Acad. Sci. USA 1973, 70, 765-8) via cyclic assembly/disassembly from porcine brains. The buffer system used had the following composition: 20 mM PIPES (1,4-piperazinediethanesulfonic acid, pKa 6.8), 80 mM NaCl, 0.5 mM MgCl2, 1 mM EGTA (ethylene glycol bis(2-aminoethyl)tetraacetic acid). Protein concentrations of 1 mg/ml (approx. […] tubulin) were used to test the active substance. The protein was determined by the method of Lowry (Lowry et al., J. Biol. Chem. 1951, 193, 265-75) using bovine serum albumin as standard. The assembly of the microtubuli was carried out in the presence of 0.25 mM GTP and heating of the samples to 37° C.
Microtubulus formation was checked using turbidimetry at a wavelength of 340 nm.
The active substances were tested by adding them at the beginning of the assembly or at the state of equilibrium. Their effectiveness is characterized by deviations in the turbidity curves from those of the control. To check the effect and evaluate the turbidity values measured, a transmission electron microscopic examination (CEM 902 A, Zeiss, Oberkochen, Germany) of the assemblate was always carried out after negative staining with 1% aqueous uranyl acetate.

A further test concerns tubulin. The note with it: literature, J. Med. Chem. 1997, 40, 2323-2334; cited from earlier work.

Each structure is given as a SMILES string. Bounds are passed on as bounds.

As a reminder, the IC50 is the point on the concentration scale where inhibition reaches its midpoint. Low readings indicate greater potency in that assay, high ones weaker potency in that assay.

T1 sequence (P02554 whole entry): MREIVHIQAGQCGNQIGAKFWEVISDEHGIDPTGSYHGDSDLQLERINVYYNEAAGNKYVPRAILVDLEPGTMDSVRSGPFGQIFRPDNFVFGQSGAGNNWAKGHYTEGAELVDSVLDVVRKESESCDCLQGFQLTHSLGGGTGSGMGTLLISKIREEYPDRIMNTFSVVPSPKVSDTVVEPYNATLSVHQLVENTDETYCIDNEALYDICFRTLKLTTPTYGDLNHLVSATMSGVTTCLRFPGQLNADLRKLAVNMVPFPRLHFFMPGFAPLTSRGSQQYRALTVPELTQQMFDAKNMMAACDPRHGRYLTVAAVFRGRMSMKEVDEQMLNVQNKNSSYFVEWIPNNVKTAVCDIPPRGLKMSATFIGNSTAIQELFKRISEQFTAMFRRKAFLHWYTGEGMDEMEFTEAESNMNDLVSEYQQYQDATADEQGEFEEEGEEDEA
T1 sequence (P02550 whole entry): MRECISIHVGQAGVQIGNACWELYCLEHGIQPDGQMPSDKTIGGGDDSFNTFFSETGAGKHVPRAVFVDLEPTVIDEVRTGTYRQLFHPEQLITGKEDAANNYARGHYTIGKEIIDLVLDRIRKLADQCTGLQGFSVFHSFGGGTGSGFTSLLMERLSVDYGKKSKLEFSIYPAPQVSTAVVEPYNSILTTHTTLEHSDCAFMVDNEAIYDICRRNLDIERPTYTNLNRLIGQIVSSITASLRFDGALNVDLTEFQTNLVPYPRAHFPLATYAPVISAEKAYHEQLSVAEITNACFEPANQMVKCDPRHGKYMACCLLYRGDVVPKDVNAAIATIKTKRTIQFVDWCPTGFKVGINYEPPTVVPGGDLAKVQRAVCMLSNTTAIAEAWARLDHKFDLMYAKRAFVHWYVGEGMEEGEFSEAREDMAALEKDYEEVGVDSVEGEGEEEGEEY

`COc1cc2c(cc1OS(N)(=O)=O)CC[C@@H]1[C@@H]2CC[C@]2(C)[C@@H](O)CC[C@@H]12` [Example 1, 2-Methoxy-17β-hydroxy-estra-1,3,5(10)-trien-3-yl sulfamate] displayed an IC50 in test [1] of 1000 nM.
Turning to `CCOc1cc2c(cc1O)CC[C@@H]1[C@@H]2CC[C@]2(C)[C@@H](O)CC[C@@H]12` [2-ethoxyestradiol], in the test on tubulin, the “Activity in inhibition of tubulin polymerization compared with 2-methoxyestradiol” value is given as “higher than that of 2-methoxyestradiol”.
In test [1], `COc1cc2c(cc1OS(N)(=O)=O)CCC1C2CC[C@]2(C)C(=O)CCC12` (stereo partly shown) [2-Methoxyestrone-3-sulfamate] returned an IC50 of 1600 nM.
The same measure, in the same setting: to `COc1cc2c(cc1O)CCC1C2CC[C@@]2(C)C1CC[C@@H]2O` (stereo partly shown) [2-Methoxyestradiol] belongs over 3000 nM.

(Values after US8026229B2, “Antitumor-active 2-alkoxyestradiol sulfamates” (Sterix Limited, priority 2001, dated 2011).)
